Assay results published in publication PMC4766415 (Nature Communications, 2016).

How the values were obtained:
[1] = cited from earlier work
V122I-TTR = V122I-TTR (Homo sapiens, UniProt P02766, V142I); assay: Isothermal titration calorimetry, V122I-TTR
[2] = system: Rat Schwannoma cells (RN22); assay: Caspase-3 activation by Y78F-TTR oligomers in RN22 cells; details: Y78F-TTR aggregates 2 μM formed with 20 μM compound; 24 h exposure
WT-TTR = WT-TTR (Homo sapiens, UniProt P02766); assay: TTR stabilization in urea, Trp fluorescence; assay type: biochemical; parameters: made in house; host or cells: Escherichia coli BL21(DE3), pET expression system; details: 72 h; for WT-tetramer unfolded: WT-TTR 1.8 μM, 6.5 M urea, RT
Experimental: In urea, TTR tetramer dissociation precedes monomer unfolding, a process easily tracked by monitoring changes in intrinsic Trp fluorescence.
At high denaturant concentrations, the rate of TTR tetramer dissociation is linked irreversibly to monomer unfolding. […] Intrinsic fluorescence was recorded after 72 h.
Urea was added to attain a range of final concentrations (0–9 M) and the samples were incubated for 72 h at RT. Fluorescence intensity measurements were performed on a Jasco FP-8200 Spectrofluorometer. Trp fluorescence was obtained by exciting the samples at 280 nm and emission was collected from 300 to 400 nm. The fluorescence intensity ratio 355/335 nm was plotted against urea concentration as a sensor of folded protein, which for TTR in urea is equivalent to tetramer integrity. […] The fraction of unfolded TTR was measured and calculated as above. The TTR fluorescence after incubation at RT for 72 h in 9 M urea was considered to correspond to that of the unfolded state.

[3] = two identical and independent binding sites

TΔs binding entropy (V122I-TTR; called unfavourable): 1.6 kcal/mol
Δh binding enthalpy per site (V122I-TTR; [3]): -11.5 kcal/mol
β1 association constant (V122I-TTR; [3]): 1.8e+07 M⁻¹
WT-tetramer unfolded (WT-TTR; 2 molar equivalents): 33.8%
WT-tetramer unfolded (WT-TTR; 4 molar equivalents): 8%
TTR remaining in the native state (WT-TTR; 10 molar equivalents, 8 M urea): more than 80%
Structure (SMILES): Cc1ccc(C(=O)c2cc(O)c(O)c([N+](=O)[O-])c2)cc1 [tolcapone]
blood–brain barrier crossing [1]: able to cross the blood–brain barrier
reduction in Caspase-3 activation [2]: 27.8%±6.1
